Patent publication US4880807A, “Nicotinoylpiperazines useful for treatment of convulsions” (Institut De Recherches Chimiques et Biologiques Appliquees …, priority 1987, dated 1989)

Legend:
[1] = system: convulsions induced by pentetrazole; test: animal or person
Excerpt: (§1) The anticonvulsant properties were investigated on male mice, thirty minutes after the oral administration of the substances to be studied, by the induction of convulsive seizures.

male mice [2] = test: in vivo; format: in vivo; details: TD50 per os/ED50 per os
Excerpt: (§2) The animals (divided into groups each containing ten male mice per dose and per product) are installed on the rod and their fall is observed over the next two minutes.

in vivo = format: in vivo; details: mouse, in vivo, po; per os, male mice, Rota-rod 30 min after administration; dose causing 50% of animals to fall; read-out: TD50 (50% neurotoxic dose)
Excerpt: as §2

male mice [3] = test: oral toxicity in mice (LD50, mortality over 14 days); details: per os, male mice; repeated in Table IV; 20160 min
Description: (§3) The toxicity of the products to be studied was investigated by the oral administration, using an esophageal tube, of each of the said products to male mice with a body weight of 18 to 22 g, divided into groups each containing 10 to 20 animals. The mortality was recorded over a 14-day period.

[4] = as above; details: mouse, in vivo, po
Description: as §3

[5] = system: convulsions induced by supra maximal electroshock (MCE); test: animal or person
Description: as §1
These seizures are caused either by the intraperitoneal injection of pentetrazole (125 mg/kg) or by electrical stimulation of the cornea (supra maximal electroshock, abbreviated to MCE).

In the case of `CCCC(CCC)C(=O)[O-].[Na+]` [VALP, sodium valproate, reference compound], the “Therapeutic index PTZ (LD50/ED50)” value ([1]; LD50 per os/ED50 per os, PTZ convulsions) is reported as 4.0, the ED50 ([1]; Mus musculus, po, 0.5 h, read-out: ED50 in respect of convulsions induced by PTZ) is reported as 244 mg/kg and the “Protection index MCE (TD50/ED50)” value (male mice [2]; MCE convulsions) is reported as 2.8. The “Protection index PTZ (TD50/ED50)” value (male mice [2]; PTZ convulsions) was 2.7, the TD50 at 0.5 h (in vivo) was 670 mg/kg and the LD50 (male mice [3]) was 977 mg/kg. For the same compound, the LD50 at 336 h [4] was 977 mg/kg, the “Therapeutic index MCE (LD50/ED50)” value ([5]; LD50 per os/ED50 per os, MCE convulsions) was 4.0 and the ED50 ([5]; Mus musculus, po, 0.5 h, read-out: ED50 in respect of convulsions induced by MCE) was 242 mg/kg.
